Test results from patent US12528814B2, “Bifunctional degraders of interleukin-1 receptor-associated kinases and therapeutic use thereof” (NURIX THERAPEUTICS, INC., priority 2020, dated 2026).
pIC50: −log10 of the molar value. Read-outs that look alike come from different tables or passages of the source.

Experiments:
IRAK4 [1] = target: T1, IRAK4 (Homo sapiens (Human), UniProt Q9NWZ3); test: IRAK4 Biochemical HTRF Kinase Assay; settings: read-out: IRAK4 HTRF biochemical: IC50
Summary of the method: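 HTRF KinEASE STK S1 format measuring IRAK4 phosphorylation of biotinylated peptide; reaction solution of 5 μM STK-S1, 10 mM ATP, 10 mM MgCl2 added (stock, to 10 μl final), 90 min at ambient temperature, detection 60 min. IC50 from sixteen-point duplicate curves by non-linear regression.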
Target sequence in this assay (Q9NWZ3 whole entry, species assumed): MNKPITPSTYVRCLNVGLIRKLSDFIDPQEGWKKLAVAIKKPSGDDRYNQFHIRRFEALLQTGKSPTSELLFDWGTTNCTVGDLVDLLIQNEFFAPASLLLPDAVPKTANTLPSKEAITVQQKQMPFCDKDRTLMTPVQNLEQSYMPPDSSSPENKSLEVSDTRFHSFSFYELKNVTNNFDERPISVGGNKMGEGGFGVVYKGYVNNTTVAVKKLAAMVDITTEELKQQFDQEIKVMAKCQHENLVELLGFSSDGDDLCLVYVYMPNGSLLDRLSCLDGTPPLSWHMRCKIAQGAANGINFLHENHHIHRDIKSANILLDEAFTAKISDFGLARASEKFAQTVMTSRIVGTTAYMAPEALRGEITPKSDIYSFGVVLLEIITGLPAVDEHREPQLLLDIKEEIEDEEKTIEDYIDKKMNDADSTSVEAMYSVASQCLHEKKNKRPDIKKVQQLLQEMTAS

IRAK4 [2] = target: T1, IRAK4; test: IRAK4 Degradation HiBiT Assay; settings: HiBiT-tagged Jurkat cells, 4 hrs; for Dmax: Jurkat; for DC50: read-out: Cellular IRAK4 HiBiT: DC50
Target sequence in this assay (Q9NWZ3 whole entry): as the sequence (Q9NWZ3 whole entry, species assumed) above

[3] = read-out: Cellular IRAK4 HiBiT: Dmax, Table 4
[4] = read-out: Cellular IRAK4 HiBiT: Dmax, Table 5, multiple runs

| pIC50 (IRAK4 [1]; Table 4) | pIC50 (IRAK4 [1]; Table 5, multiple runs) | Dmax (IRAK4 [2]; [3]) | Dmax (IRAK4 [2]; [4]) | DC50 (IRAK4 [2]; Table 4) | DC50 (IRAK4 [2]; Table 5, multiple runs) | SMILES |
| --- | --- | --- | --- | --- | --- | --- |
| 8.40 | 8.40 | 117% | 121% | 591 nM | 399 nM | CNc1cc(-c2ccc3cc(C#N)cnn23)ncc1-c1nnc([C@H]2CC[C@H](NC(=O)CCOCCC(=O)N[C@H](C(=O)N3C[C@H](O)C[C@H]3C(=O)N[C@@H](C)c3ccc(-c4scnc4C)cc3)C(C)(C)C)CC2)s1 [Example 61, (2S,4R)-1-((S)-2-(3-(3-(((1r,4S)-4-(5-(6-(3-cyanopyrrolo[1,2-b]pyridazin-7-yl)-4-(methylamino)pyridin-3-yl)-1,3,4-thiadiazol-2-yl)cyclohexyl)amino)-3-oxopropoxy)propanamido)-3,3-dimethylbutanoyl)-4-hydroxy-N—((S)-1-(4-(4-methylthiazol-5-yl)phenyl)ethyl)pyrrolidine-2-carboxamide] |
|  | 8.85 |  | 133% |  | 1910 nM | CNc1cc(-c2ccc3cc(C#N)cnn23)ncc1-c1nnc(C23CCC(NC(=O)CCCC(=O)N[C@H](C(=O)N4C[C@H](O)C[C@H]4C(=O)NCc4ccc(-c5scnc5C)cc4)C(C)(C)C)(CC2)CC3)s1 [Example 141, N1-(4-(5-(6-(3-cyanopyrrolo[1,2-b]pyridazin-7-yl)-4-(methylamino)pyridin-3-yl)-1,3,4-thiadiazol-2-yl)bicyclo[2.2.2]octan-1-yl)-N5-((S)-1-((2S,4R)-4-hydroxy-2-((4-(4-methylthiazol-5-yl)benzyl)carbamoyl)pyrrolidin-1-yl)-3,3-dimethyl-1-oxobutan-2-yl)glutaramide] |
| 8.79 | 8.74 | 53% | 86% | 10.4 nM | 45.7 nM | CNc1cc(-c2ccc3cc(C#N)cnn23)ncc1-c1nnc([C@H]2CC[C@H](NC(=O)CCCCCCCNc3ccc4c(c3)C(=O)N(C3CCC(=O)NC3=O)C4=O)CC2)s1 (some centres unmarked) [Example 67, N-((1r,4r)-4-(5-(6-(3-cyanopyrrolo[1,2-b]pyridazin-7-yl)-4-(methylamino)pyridin-3-yl)-1,3,4-thiadiazol-2-yl)cyclohexyl)-8-((2-(2,6-dioxopiperidin-3-yl)-1,3-dioxoisoindolin-5-yl)amino)octanamide] |
| 8.55 | 8.82 | 115% | 117% | 77.6 nM | 52.9 nM | CNc1cc(-c2ccc3cc(C#N)cnn23)ncc1-c1nnc([C@H]2CC[C@H](NC(=O)CCC(=O)N[C@H](C(=O)N3C[C@H](O)C[C@H]3C(=O)N[C@@H](C)c3ccc(-c4scnc4C)cc3)C(C)(C)C)CC2)s1 [Example 56, N1-((1r,4S)-4-(5-(6-(3-cyanopyrrolo[1,2-b]pyridazin-7-yl)-4-(methylamino)pyridin-3-yl)-1,3,4-thiadiazol-2-yl)cyclohexyl)-N4—((S)-1-((2S,4R)-4-hydroxy-2-(((S)-1-(4-(4-methylthiazol-5-yl)phenyl)ethyl)carbamoyl)pyrrolidin-1-yl)-3,3-dimethyl-1-oxobutan-2-yl)succinamide] |
|  | 9.30 |  | 68% |  | 54.8 nM | CNc1cc(-c2ccc3cc(C#N)cnn23)ncc1-c1nnc([C@H]2CC[C@H](NC[C@@H]3CCN(c4ccc5c(c4)C(=O)N(C4CCC(=O)NC4=O)C5=O)C3)CC2)s1 (stereo partly drawn) [Example 153, 7-(5-(5-((1S,4r)-4-((((3S)-1-(2-(2,6-dioxopiperidin-3-yl)-1,3-dioxoisoindolin-5-yl)pyrrolidin-3-yl)methyl)amino)cyclohexyl)-1,3,4-thiadiazol-2-yl)-4-(methylamino)pyridin-2-yl)pyrrolo[1,2-b]pyridazine-3-carbonitrile] |
|  | 9.00 |  | 105% |  | 7.75 nM | CNc1cc(-c2ccc3cc(C#N)cnn23)ncc1-c1nnc([C@H]2C[C@H](NC(=O)CN3CCN(c4ccc5c(c4)C(=O)N(C4CCC(=O)NC4=O)C5=O)CC3)C2)s1 (some centres unmarked) [Example 190, N-((1r,3r)-3-(5-(6-(3-cyanopyrrolo[1,2-b]pyridazin-7-yl)-4-(methylamino)pyridin-3-yl)-1,3,4-thiadiazol-2-yl)cyclobutyl)-2-(4-(2-(2,6-dioxopiperidin-3-yl)-1,3-dioxoisoindolin-5-yl)piperazin-1-yl)acetamide] |
|  | 8.68 |  |  |  | > 9980 nM | CNc1cc(-c2ccc3cc(C#N)cnn23)ncc1-c1nnc(N2CCCC3(CN(Cc4ccc5c(c4)CN(C4CCC(=O)NC4=O)C5=O)C3)C2)s1 (centres unmarked) [Example 123, 7-(5-(5-(2-((2-(2,6-dioxopiperidin-3-yl)-1-oxoisoindolin-5-yl)methyl)-2,6-diazaspiro[3.5]nonan-6-yl)-1,3,4-thiadiazol-2-yl)-4-(methylamino)pyridin-2-yl)pyrrolo[1,2-b]pyridazine-3-carbonitrile] |
| 8.89 | 8.89 | 104% | 104% | 128 nM | 128 nM | CC(C)Nc1cc(-c2ccc3cc(C#N)cnn23)ncc1-c1nnc(N2CCN(C(=O)CCOCCOCCOCCNc3cccc4c3C(=O)N(C3CCC(=O)NC3=O)C4=O)CC2)s1 (centres unmarked) [Example 11, 7-(5-(5-(4-(3-(2-(2-(2-((2-(2,6-dioxopiperidin-3-yl)-1,3-dioxoisoindolin-4-yl)amino)ethoxy)ethoxy)ethoxy)propanoyl)piperazin-1-yl)-1,3,4-thiadiazol-2-yl)-4-(isopropylamino)pyridin-2-yl)pyrrolo[1,2-b]pyridazine-3-carbonitrile] |
|  | 9.10 |  | 109% |  | 15.5 nM | CNc1cc(-c2ccc3cc(C#N)cnn23)ncc1-c1nnc(N2CCN(C(=O)N3CCN(Cc4ccc5c(c4)C(=O)N(C4CCC(=O)NC4=O)C5=O)CC3)CC2)s1 (centres unmarked) [Example 156, 7-(5-(5-(4-(4-((2-(2,6-dioxopiperidin-3-yl)-1,3-dioxoisoindolin-5-yl)methyl)piperazine-1-carbonyl)piperazin-1-yl)-1,3,4-thiadiazol-2-yl)-4-(methylamino)pyridin-2-yl)pyrrolo[1,2-b]pyridazine-3-carbonitrile] |
|  | 9.05 |  | 113% |  | 63 nM | CNc1cc(-c2ccc3cc(C#N)cnn23)ncc1-c1nnc([C@H]2CC[C@H](NC(=O)C3CCN(c4ccc5c(c4)C(=O)N(C4CCC(=O)NC4=O)C5=O)CC3)CC2)s1 (some centres unmarked) [Example 152, N-((1r,4r)-4-(5-(6-(3-cyanopyrrolo[1,2-b]pyridazin-7-yl)-4-(methylamino)pyridin-3-yl)-1,3,4-thiadiazol-2-yl)cyclohexyl)-1-(2-(2,6-dioxopiperidin-3-yl)-1,3-dioxoisoindolin-5-yl)piperidine-4-carboxamide] |

| SMILES | pIC50 (IRAK4 [1]; Table 4) | pIC50 (IRAK4 [1]; Table 5, multiple runs) | Dmax (IRAK4 [2]; [3]) | Dmax (IRAK4 [2]; [4]) | DC50 (IRAK4 [2]; Table 4) | DC50 (IRAK4 [2]; Table 5, multiple runs) |
| --- | --- | --- | --- | --- | --- | --- |
| CNc1cc(-c2ccc3cc(C#N)cnn23)ncc1-c1nnc([C@H]2CC[C@H](NC(=O)CCCOc3cc(-c4scnc4C)ccc3CNC(=O)[C@@H]3C[C@@H](O)CN3C(=O)[C@@H](NC(=O)C3(F)CC3)C(C)(C)C)CC2)s1 [Example 119, (2S,4R)—N-(2-(4-(((1r,4S)-4-(5-(6-(3-cyanopyrrolo[1,2-b]pyridazin-7-yl)-4-(methylamino)pyridin-3-yl)-1,3,4-thiadiazol-2-yl)cyclohexyl)amino)-4-oxobutoxy)-4-(4-methylthiazol-5-yl)benzyl)-1-((S)-2-(1-fluorocyclopropane-1-carboxamido)-3,3-dimethylbutanoyl)-4-hydroxypyrrolidine-2-carboxamide] |  | 8.66 |  | 117% |  | 116 nM |
